According to patent US20250270222A1, “AP2 ASSOCIATED KINASE 1 INHIBITORS AND USES THEREOF” (Satellos Bioscience Inc., priority 2023, published 2025):

Key:
[1] = molecular target: AAK1 (amino acids T27-A365) (Homo sapiens (Human), UniProt Q2M2I8); test: AAK1 pSENs assay; assay type: biochemical; conditions: ratio of AAK1 pSENs activity to GAK pSENs activity
Description: (§1) The recombinant proteins were independently expressed in Esherichia coli BL21(DE3) cells cultured in Luria-Bertani (LB) medium until OD600 reached 0.6-0.8, then cooled to 15° C., and supplemented with 0.5 mM isopropyl 1-thio-D-galactopyranoside (IPTG) induce protein expression 16 h. Cells were harvested and resuspended in lysis buffer (50 mM HEPES pH 7.5, 500 mM NaCl, 5 mM imidazole, 5% glycerol, 0.5 mM Tris (2-carboxyethyl) phosphine (TCEP), cOmplete Protease Inhibitor Tablet (Roche)) and lysed by microfluidics high pressure homogenizer (UH-06, Union-Biotech). Proteins were purified using Ni-Affinity chromatography (His FF column, Bestchrom) and eluted stepwise in binding buffer with 20-300 mM imidazole. Removal of the hexahistidine tag was performed at 4° C. overnight using recombinant TEV protease and reacted with BirA to obtain the corresponding biotinylated-AAK1. BIKE or GAK proteins. Further separated in the reverse Strep column (Strep-Tactin® XT, IBA). The Biotin elution sample was collected containing untagged biotinylated protein was then purified by Ion-exchange chromatography (Mono Q 10/100 GL, Cytiva) and Size-exclusion chromatography (HiLoad 16/600 Superdex 200 pg, Cytiva). The pure protein was stored in a storage buffer 50 mM HEPES (pH 7.5), 300 mM NaCl, 5% glycerol at −80° C. Protein were characterized by SDS-PAGE. LC-MS and aSEC.
This example describes one illustrative method for determining the IC50 of the compounds of the present invention against AAK1 (amino acids T27-A365). AAK1 protein was dissolved at 20 nM in 1× enzyme solution (50 mM HEPES pH7.5, 10 mM MgCl2, 1 mM DTT, 1% glycerol, 0.5 mM EGTA, 0.01% Briji35, 0.02% BSA) and 12.5 ul was incubated with 250 nl DMSO or 250 nl compound in DMSO at 25° C. for 15 min. The reaction was started by addition of 12.5 ul of 30 uM AQT0759 (Assayquant, CSKS-AQT0759B) and 70 uM ATP which were diluted in 1× substrate dilution buffer (50 mM HEPES pH7.5, 10 mM MgCl2, 1 mM DTT, 1% glycerol, 0.5 mM EGTA, 0.01% Briji35).

[2] = molecular target: GAK (amino acids Q25-N335) (Homo sapiens (Human), UniProt O14976); test: GAK pSENs assay; assay type: biochemical
Description: as §1
This example describes one illustrative method for determining the IC50 of the compounds of the present invention against GAK (amino acids Q25-N335).

Sequence of AAK1 (amino acids T27-A365) (Q2M2I8 27-365): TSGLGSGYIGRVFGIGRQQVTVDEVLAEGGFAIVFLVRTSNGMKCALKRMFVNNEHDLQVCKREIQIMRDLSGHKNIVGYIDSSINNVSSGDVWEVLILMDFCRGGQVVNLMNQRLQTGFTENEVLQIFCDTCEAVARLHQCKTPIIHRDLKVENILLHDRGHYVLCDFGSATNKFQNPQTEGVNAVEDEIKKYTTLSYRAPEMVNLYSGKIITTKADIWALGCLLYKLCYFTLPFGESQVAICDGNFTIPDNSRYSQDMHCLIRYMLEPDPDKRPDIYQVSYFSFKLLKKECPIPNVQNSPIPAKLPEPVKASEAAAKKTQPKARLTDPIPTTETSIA
Sequence of GAK (amino acids Q25-N335) (O14976 25-335): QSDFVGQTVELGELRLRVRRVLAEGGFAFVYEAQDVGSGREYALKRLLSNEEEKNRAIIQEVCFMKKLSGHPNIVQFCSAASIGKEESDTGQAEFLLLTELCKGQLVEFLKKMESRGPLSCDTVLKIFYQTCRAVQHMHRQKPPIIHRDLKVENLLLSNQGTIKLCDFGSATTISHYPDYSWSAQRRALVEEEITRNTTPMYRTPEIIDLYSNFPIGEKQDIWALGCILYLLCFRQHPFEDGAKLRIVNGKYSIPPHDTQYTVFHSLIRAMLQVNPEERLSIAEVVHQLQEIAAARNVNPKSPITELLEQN

AAK1:GAK pSENs Selectivity [1] | IC50 [2] [nM] | Compound
A (A: ≤0.015) | > 1500 | C[C@@H]1CN(c2ccn3ncc(-c4cccnc4OC4CC4)c3n2)CCN1C(=O)O[C@@H]1CNC(=O)C1 [Compound I-39, [(3S)-5-oxopyrrolidin-3-yl]-(2R)-4-[3-[2-(cyclopropoxy)-3-pyridyl]pyrazolo[1,5-a]pyrimidin-5-yl]-2-methyl-piperazine-1-carboxylate]
A (A: ≤0.015) | > 1500 | COCCN1C[C@@H](OC(=O)N2CCN(c3ccn4ncc(-c5cc(F)cnc5OC5CC5)c4n3)CC2)CC1=O [Compound I-89]
A (A: ≤0.015) | > 1500 | O=C1C[C@H](OC(=O)N2CCN(c3ccn4ncc(-c5cccnc5OC5CC5)c4n3)CC2)CN1CCO [Compound I-38, [(3S)-1-(2-Hydroxyethyl)-5-oxo-pyrrolidin-3-yl]-4-[3-[2-(cyclopropoxy)-3-pyridyl]pyrazolo[1,5-a]pyrimidin-5-yl]piperazine-1-carboxylate]
A (A: ≤0.015) | > 1500 | CN1C[C@@H](OC(=O)N2CCN(c3nc4c(-c5cccnc5OC5CC5)cnn4cc3F)CC2)CC1=O [Compound I-109, [(3S)-1-methyl-5-oxo-pyrrolidin-3-yl]4-[3-[2-(cyclopropoxy)-3-pyridyl]-6-fluoro-pyrazolo[1,5-a]pyrimidin-5-yl]piperazine-1-carboxylate]
A (A: ≤0.015) | > 1500 | [2H]C([2H])([2H])N1C[C@@H](OC(=O)N2CCN(c3nc4c(-c5cc(F)cnc5OC5CC5)cnn4cc3F)CC2)CC1=O [Compound I-118, [(3S)-5-oxo-1-(trideuteriomethyl)pyrrolidin-3-yl]4-[3-[2-(cyclopropoxy)-5-fluoro-3-pyridyl]-6-fluoro-pyrazolo[1,5-a]pyrimidin-5-yl]piperazine-1-carboxylate]
B (B: 0.016-0.075) | > 1500 | CN1C[C@@H](OC(=O)N2CCN(c3nc4c(-c5cccnc5OC5CCOC5)cnn4cc3F)CC2)CC1=O (stereo partly drawn) [Compound I-120, [(3S)-1-methyl-5-oxo-pyrrolidin-3-yl]4-[6-fluoro-3-(2-tetrahydrofuran-3-yloxy-3-pyridyl)pyrazolo[1,5-a]pyrimidin-5-yl]piperazine-1-carboxylate]
A (A: ≤0.015) | > 1500 | COC(=O)N1CC(Oc2ncccc2-c2cnn3ccc(NCCN(C)C(=O)OC(C)(C)C)nc23)C1 [Compound I-64]
A (A: ≤0.015) | > 1500 | CC(=O)N1CC(Oc2ncccc2-c2cnn3ccc(N4CCN(C(=O)O[C@@H]5CNC(=O)C5)CC4)nc23)C1 [Compound I-59, (S)-5-oxopyrrolidin-3-yl 4-(3-(2-((1-acetylazetidin-3-yl)oxy)pyridin-3-yl)pyrazolo[1,5-a]pyrimidin-5-yl)piperazine-1-carboxylate]
A (A: ≤0.015) | > 1500 | CC1(OC(=O)N2CCN(c3ccn4ncc(-c5cccnc5OC5COC5)c4n3)CC2)COC1 [Compound I-18, (3-Methyloxetan-3-yl)-4-[3-[2-(oxetan-3-yloxy)-3-pyridyl]pyrazolo[1,5-a]pyrimidin-5-yl]piperazine-1-carboxylate]
B (B: 0.016-0.075) | > 1500 | CC(C)N1C[C@@H](OC(=O)N2CCN(c3ccn4ncc(-c5cccnc5OC5CC5)c4n3)CC2)CC1=O [Compound I-114, [(3S)-1-isopropyl-5-oxo-pyrrolidin-3-yl]-4-[3-[2-(cyclopropoxy)-3-pyridyl]pyrazolo[1,5-a]pyrimidin-5-yl]piperazine-1-carboxylate]
A (A: ≤0.015) | > 1500 | C[C@@]1(OC(=O)N2CCN(c3ccn4ncc(-c5cccnc5OC5CC5)c4n3)CC2)CCN(CCO)C1 [Compound I-52, [(3R)-1-(2-hydroxyethyl)-3-methyl-pyrrolidin-3-yl]-4-[3-[2-(cyclopropoxy)-3-pyridyl]pyrazolo[1,5-a]pyrimidin-5-yl]piperazine-1-carboxylate]
A (A: ≤0.015) | > 1500 | CC(=O)N1CC(Oc2ncccc2-c2cnn3ccc(NCCN(C)C(=O)OC(C)(C)C)nc23)C1 [Compound I-63, Tert-butyl (2-((3-(2-((1-acetylazetidin-3-yl)oxy)pyridin-3-yl)pyrazolo[1,5-a]pyrimidin-5-yl)amino)ethyl)(methyl)carbamate]
A (A: ≤0.015) | > 1500 | COc1ncccc1-c1cnn2ccc(N3CCN(C(=O)O[C@H]4CO[C@H]5OCC[C@H]54)CC3)nc12 [Compound I-65, (3R,3aS,6aR)-hexahydrofuro[2,3-b]furan-3-yl 4-(3-(2-methoxypyridin-3-yl)pyrazolo[1,5-a]pyrimidin-5-yl)piperazine-1-carboxylate]
A (A: ≤0.015) | > 1500 | CNCCN1C[C@@H](OC(=O)N2CCN(c3ccn4ncc(-c5cccnc5OC5CC5)c4n3)CC2)CC1=O [Compound I-36, (S)-1-(2-(methylamino)ethyl)-5-(oxopyrrolidin-3-yl)-4-(3-(2-cyclopropoxypyridin-3-yl)pyrazolo[1,5-a]pyrimidin-5-yl)piperazine-1-carboxylate]

Compound | AAK1:GAK pSENs Selectivity [1] | IC50 [2] [nM]
CC(C)Oc1ncccc1-c1cnn2ccc(N3CCN(C(=O)OC4(C)COC4)CC3)nc12 [Compound I-1, (3-methyloxetan-3-yl)-4-[3-(2-isopropoxy-3-pyridyl)pyrazolo[1,5-a]pyrimidin-5-yl]piperazine-1-carboxylate] | A (A: ≤0.015) | > 1500
CN1CC[C@@](C)(OC(=O)N2CCN(c3ccn4ncc(-c5cccnc5OC5CC5)c4n3)CC2)C1 [Compound I-50, [(3R)-1,3-dimethylpyrrolidin-3-yl]-4-[3-[2-(cyclopropoxy)-3-pyridyl]pyrazolo[1,5-a]pyrimidin-5-yl]piperazine-1-carboxylate] | A (A: ≤0.015) | > 1500
CC(C)(C)OC(=O)N1CCC(N2C[C@@H](OC(=O)N3CCN(c4ccn5ncc(-c6cccnc6OC6CC6)c5n4)CC3)CC2=O)CC1 [Compound I-30, [(3S)-1-(1-tert-Butoxycarbonyl-4-piperidyl)-5-oxo-pyrrolidin-3-yl]4-[3-[2-(cyclopropoxy)-3-pyridyl]pyrazolo[1,5-a]pyrimidin-5-yl]piperazine-1-carboxylate] | A (A: ≤0.015) | > 1500
COc1ncccc1-c1cnn2ccc(N3CCN(C(=O)OC4CNC(=O)C4)CC3)nc12 (stereo not shown) [Compound I-6, (5-Oxopyrrolidin-3-yl) 4-[3-(2-methoxy-3-pyridyl)pyrazolo[1,5-a]pyrimidin-5-yl]piperazine-1-carboxylate] | A (A: ≤0.015) | > 1500
CN1C[C@@H](OC(=O)N2CCN(c3ccn4ncc(-c5cccnc5OC5CC5)c4n3)CC2)CC1=O [Compound I-34] | A (A: ≤0.015) | > 1500
CN(CCNc1ccn2ncc(-c3cccnc3OC3CN(C(=O)OC(C)(C)C)C3)c2n1)C(=O)OC(C)(C)C [Compound I-62, Tert-butyl 3-[[3-[5-[2-[tert-butoxycarbonyl(methyl)amino]ethylamino]pyrazolo[1,5-a]pyrimidin-3-yl]-2-pyridyl]oxy]azetidine-1-carboxylate] | A (A: ≤0.015) | > 1500
CN1C[C@@H](OC(=O)N2CCN(c3nc4c(-c5cccnc5OC5CCCC5)cnn4cc3F)CC2)CC1=O [Compound I-121, [(3S)-1-methyl-5-oxo-pyrrolidin-3-yl]-4-[3-[2-(cyclopentoxy)-3-pyridyl]-6-fluoro-pyrazolo[1,5-a]pyrimidin-5-yl]piperazine-1-carboxylate] | B (B: 0.016-0.075) | > 1500
CN1C[C@@H](OC(=O)N2CCN(c3ccn4ncc(-c5cccnc5OC5CCOC5)c4n3)CC2)CC1=O (stereo partly shown) [Compound I-119] | B (B: 0.016-0.075) | > 1500
CC1(OC(=O)N2CCN(c3ccn4ncc(-c5cccnc5OC5CC5)c4n3)CC2)COC1 [Compound I-2, (3-methyloxetan-3-yl)-4-[3-[2-(cyclopropoxy)-3-pyridyl]pyrazolo[1,5-a]pyrimidin-5-yl]piperazine-1-carboxylate] | A (A: ≤0.015) | > 1500
